# Assay results as given in publication PMC10850954, “HDAC6/aggresome processing pathway importance for inflammasome formation is context-dependent” (The Journal of Biological Chemistry, 2024).
# Columns and labels:
# Assay in all cases: In vitro enzymatic assay with purified HDACs
# Format in all cases: biochemical
# [1] = tested on: other HDACs; conditions: other HDACs (than HDAC6 and HDAC8)
# Source text: (§1) To extend these observations in other cell settings, we next made use of a novel HDAC6 proteolysis targeting chimera (PROTAC) degrader, XY-07-35 ([19]). Treatment of cells with XY-07-35 leads to recruitment of the E3 ligase cereblon (CRBN) to HDAC6, ubiquitination, and subsequent proteasomal degradation of HDAC6 (Fig. 3A).
# (§2) Figure 3 Effect of […] mediated HDAC6 degradation on NLRP3 inflammasome activation in PBMCs.A, schematic of the mode of action of an HDAC6 degrader. The PROTAC engages both HDAC6 and the E3 ligase cereblon (CRBN), which then leads to ubiquitination and degradation of HDAC6. B, chemical structure of the HDAC6 degrader XY-07-35 and of the negative control XY-07-191 which no longer recruits CRBN. C, in vitro enzymatic assay of compound XY-07-35 on the activity of different HDACs. IC50 for each enzyme is shown. D, XY-07-35 mediated HDAC6 degradation in PBMCs. PBMCs (without or with LPS priming for 4 h) were treated with the indicated compounds and HDAC6 levels were detected by immunoblotting with an anti-HDAC6 antibody. Detection of actin was used as a control for loading. CGP, CGP084892 (Caspase-1 inhibitor); AFN700 is an inhibitor of the NF-kB pathway (IKK inhibitor). E, HDAC6 degradation impact on IL-1β release in PBMCs following MSU 200 μg/ml (5 h), nigericin 2 μM (2 h) or ATP 3 mM (0.5 h) treatment. Cells were first primed with 0.2 ng/ml LPS for 4 h at 37 °C, then treated with MSU, nigericin, and ATP as indicated. The graphs below show the results of three independent experiments using the inducers as indicated. NP3-948 is an inhibitor of the NLRP3 inflammasome. TEXT PRINTED IN THE PICTURE: (C) XY-07-035: Compound IC50 (μM): 1.04 (Target: HDAC1); Compound IC50 (μM): 2.47 (Target: HDAC2); Compound IC50 (μM): 1.44 (Target: HDAC3); Compound IC50 (μM): 5.75 (Target: HDAC5); Compound IC50 (μM): 0.0485 (Target: HDAC6); Compound IC50 (μM): 0.621 (Target: HDAC8) DOUBTS OF THE COPYIST ABOUT THIS PICTURE: XY-07-035, HDAC4, HDAC7 and HDAC9: the table prints only dashes (--), no value, so these rows are left out
# [2] = target: HDAC2 (Homo sapiens, UniProt Q92769)
# Chain of HDAC2 (Q92769 whole entry, species assumed): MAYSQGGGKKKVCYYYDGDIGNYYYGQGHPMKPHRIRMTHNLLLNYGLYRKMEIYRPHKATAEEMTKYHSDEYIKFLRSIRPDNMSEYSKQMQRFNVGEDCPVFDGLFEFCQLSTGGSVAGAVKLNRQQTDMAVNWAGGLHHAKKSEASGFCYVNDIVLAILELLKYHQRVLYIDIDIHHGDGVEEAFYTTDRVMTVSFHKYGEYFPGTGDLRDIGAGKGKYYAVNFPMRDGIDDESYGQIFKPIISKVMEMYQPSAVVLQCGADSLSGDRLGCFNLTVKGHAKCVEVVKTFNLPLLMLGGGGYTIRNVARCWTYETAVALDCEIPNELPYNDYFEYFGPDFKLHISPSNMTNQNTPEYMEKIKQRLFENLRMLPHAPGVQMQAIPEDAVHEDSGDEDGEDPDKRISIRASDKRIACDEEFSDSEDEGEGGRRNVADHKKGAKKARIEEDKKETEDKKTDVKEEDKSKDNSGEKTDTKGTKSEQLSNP
# Source text: as §1, §2
# [3] = target: T1, HDAC6 (Homo sapiens, UniProt Q9UBN7)
# T1 sequence (Q9UBN7 1-1215): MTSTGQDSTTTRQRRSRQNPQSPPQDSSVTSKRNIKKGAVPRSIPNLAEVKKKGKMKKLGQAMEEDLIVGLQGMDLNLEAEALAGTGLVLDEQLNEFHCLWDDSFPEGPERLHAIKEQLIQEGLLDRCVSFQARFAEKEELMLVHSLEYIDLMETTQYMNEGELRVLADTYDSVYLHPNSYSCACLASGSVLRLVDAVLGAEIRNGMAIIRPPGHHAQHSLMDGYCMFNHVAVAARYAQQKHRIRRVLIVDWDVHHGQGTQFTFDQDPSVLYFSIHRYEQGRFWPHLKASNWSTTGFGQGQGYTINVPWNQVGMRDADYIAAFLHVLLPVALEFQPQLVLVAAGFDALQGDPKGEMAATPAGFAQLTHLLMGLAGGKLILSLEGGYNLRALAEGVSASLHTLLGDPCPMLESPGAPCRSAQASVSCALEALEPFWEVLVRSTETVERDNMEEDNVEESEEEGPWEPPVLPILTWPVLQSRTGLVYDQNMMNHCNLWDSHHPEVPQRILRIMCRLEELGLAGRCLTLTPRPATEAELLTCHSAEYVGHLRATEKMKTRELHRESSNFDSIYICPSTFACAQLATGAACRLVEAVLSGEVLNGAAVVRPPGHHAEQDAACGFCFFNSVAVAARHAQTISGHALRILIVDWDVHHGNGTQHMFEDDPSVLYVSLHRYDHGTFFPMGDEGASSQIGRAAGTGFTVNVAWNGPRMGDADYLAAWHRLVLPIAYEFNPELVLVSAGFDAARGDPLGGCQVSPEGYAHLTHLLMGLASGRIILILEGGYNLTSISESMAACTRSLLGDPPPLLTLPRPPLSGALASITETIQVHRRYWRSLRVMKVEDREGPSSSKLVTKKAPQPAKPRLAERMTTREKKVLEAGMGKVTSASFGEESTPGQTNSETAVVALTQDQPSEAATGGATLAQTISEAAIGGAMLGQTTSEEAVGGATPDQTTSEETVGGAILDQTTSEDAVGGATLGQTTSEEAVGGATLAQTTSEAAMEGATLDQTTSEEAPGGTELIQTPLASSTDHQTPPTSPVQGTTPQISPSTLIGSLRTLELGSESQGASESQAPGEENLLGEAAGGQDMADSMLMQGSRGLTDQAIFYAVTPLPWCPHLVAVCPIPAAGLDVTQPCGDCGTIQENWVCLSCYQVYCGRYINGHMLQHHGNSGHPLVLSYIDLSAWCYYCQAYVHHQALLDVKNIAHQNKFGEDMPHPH
# Source text: as §1, §2
# [4] = target: T2, HDAC8 (Homo sapiens, UniProt Q9BY41)
# T2 sequence (Q9BY41 1-377): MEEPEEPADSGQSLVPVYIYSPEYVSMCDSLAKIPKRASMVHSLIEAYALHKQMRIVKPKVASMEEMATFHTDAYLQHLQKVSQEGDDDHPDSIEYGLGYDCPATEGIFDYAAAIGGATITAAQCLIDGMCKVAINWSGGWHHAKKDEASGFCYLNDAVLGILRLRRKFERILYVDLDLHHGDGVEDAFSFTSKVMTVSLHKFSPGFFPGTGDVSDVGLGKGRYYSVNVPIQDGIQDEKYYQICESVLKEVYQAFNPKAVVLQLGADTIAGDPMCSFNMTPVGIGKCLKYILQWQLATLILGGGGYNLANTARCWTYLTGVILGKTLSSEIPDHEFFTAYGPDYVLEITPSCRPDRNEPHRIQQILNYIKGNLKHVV
# Source text: as §1, §2
# [5] = target: HDAC5 (Homo sapiens, UniProt Q9UQL6)
# Chain of HDAC5 (Q9UQL6 whole entry, species assumed): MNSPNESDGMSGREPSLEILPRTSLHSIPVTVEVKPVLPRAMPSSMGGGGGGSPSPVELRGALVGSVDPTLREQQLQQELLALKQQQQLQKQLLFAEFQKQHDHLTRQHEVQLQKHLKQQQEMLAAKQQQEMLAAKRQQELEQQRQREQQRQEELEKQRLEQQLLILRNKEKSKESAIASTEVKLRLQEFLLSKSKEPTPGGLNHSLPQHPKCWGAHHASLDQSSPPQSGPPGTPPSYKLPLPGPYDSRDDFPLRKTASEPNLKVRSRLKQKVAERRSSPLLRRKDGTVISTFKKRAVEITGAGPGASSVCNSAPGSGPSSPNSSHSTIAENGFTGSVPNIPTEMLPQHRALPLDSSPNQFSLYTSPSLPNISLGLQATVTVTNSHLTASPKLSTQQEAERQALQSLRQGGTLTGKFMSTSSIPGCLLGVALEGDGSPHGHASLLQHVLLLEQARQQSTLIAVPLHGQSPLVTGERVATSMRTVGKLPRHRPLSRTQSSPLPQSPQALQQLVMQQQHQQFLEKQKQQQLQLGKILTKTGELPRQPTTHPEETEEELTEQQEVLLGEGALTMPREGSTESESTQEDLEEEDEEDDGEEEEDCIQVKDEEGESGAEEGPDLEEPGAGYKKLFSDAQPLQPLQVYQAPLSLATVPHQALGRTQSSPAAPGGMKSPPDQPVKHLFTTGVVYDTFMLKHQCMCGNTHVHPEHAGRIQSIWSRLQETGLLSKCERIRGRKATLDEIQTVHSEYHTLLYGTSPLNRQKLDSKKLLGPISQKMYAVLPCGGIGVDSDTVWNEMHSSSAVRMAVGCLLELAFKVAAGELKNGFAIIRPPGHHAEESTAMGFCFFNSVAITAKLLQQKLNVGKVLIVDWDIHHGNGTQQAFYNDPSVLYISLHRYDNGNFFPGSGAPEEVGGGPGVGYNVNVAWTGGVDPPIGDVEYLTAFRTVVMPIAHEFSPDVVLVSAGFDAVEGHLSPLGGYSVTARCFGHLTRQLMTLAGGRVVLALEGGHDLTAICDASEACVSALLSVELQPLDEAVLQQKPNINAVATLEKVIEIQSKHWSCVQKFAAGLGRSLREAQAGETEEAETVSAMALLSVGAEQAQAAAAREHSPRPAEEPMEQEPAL
# Source text: as §1, §2
# [6] = target: HDAC1 (Homo sapiens, UniProt Q13547)
# Chain of HDAC1 (Q13547 whole entry, species assumed): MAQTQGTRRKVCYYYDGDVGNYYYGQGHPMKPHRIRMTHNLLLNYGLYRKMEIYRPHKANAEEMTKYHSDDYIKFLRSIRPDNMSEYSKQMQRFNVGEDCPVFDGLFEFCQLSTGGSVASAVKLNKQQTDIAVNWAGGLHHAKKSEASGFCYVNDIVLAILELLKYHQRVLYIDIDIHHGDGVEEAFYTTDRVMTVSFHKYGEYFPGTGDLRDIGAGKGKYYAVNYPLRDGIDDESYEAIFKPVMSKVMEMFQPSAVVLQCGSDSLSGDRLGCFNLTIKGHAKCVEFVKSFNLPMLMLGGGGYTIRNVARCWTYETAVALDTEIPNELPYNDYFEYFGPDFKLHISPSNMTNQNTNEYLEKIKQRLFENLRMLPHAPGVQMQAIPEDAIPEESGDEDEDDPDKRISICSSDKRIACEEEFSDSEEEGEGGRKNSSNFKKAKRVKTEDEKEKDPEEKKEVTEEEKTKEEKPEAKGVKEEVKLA
# Source text: as §1, §2
# [7] = target: HDAC3 (Homo sapiens, UniProt O15379)
# Chain of HDAC3 (O15379 whole entry, species assumed): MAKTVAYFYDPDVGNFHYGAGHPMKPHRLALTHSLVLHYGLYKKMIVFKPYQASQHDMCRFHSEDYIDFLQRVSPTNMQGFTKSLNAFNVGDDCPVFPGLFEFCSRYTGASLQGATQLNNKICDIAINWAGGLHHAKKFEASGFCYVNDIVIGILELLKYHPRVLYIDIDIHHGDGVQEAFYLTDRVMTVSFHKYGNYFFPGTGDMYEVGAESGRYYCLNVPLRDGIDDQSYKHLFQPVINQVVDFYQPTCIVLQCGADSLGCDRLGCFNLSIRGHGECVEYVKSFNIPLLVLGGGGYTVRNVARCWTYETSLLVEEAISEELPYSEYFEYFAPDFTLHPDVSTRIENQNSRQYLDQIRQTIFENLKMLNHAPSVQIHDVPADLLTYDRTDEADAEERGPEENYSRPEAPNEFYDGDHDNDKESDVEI
# Chain of HDAC3 (Q9Y618 395-489 partner limits assumed, species assumed): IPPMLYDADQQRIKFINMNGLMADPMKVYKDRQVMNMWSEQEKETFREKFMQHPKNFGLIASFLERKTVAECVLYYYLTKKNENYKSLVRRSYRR
# Source text: as §1, §2
structure (smiles),measurement,setting,value
CN(C(=O)CCCNc1cccc2c1C(=O)N(C1CCC(=O)NC1=O)C2=O)c1ccc(NC(=O)CCCCCCC(=O)NO)cc1 (stereo not shown) [XY-07-35],IC50,[1],1040 to 5750 nM
same,IC50,[2],2470 nM
same,IC50,[3],48.5 nM
same,IC50,[4],621 nM
same,IC50,[5],5750 nM
same,IC50,[6],1040 nM
same,IC50,[7],1440 nM
